Experimental data from patent US6172102A, “Pyrrole derivatives and medicinal composition” (Nippon Shinyaku Co., Ltd., priority 1995, dated 2001).

Test system: urinary bladder
Assay: Cystometrography (rats): bladder capacity after intraduodenal administration
Format: in vivo
Details: female SD rats, urethane anesthesia, max of 0.5, 1, 2, 3 h, mean
Method: Cystometrography is a method for ascertaining the relation between intravesical pressure and bladder capacity and provides information on the time course of condition of the urinary bladder from urine filling to micturition, the possible involuntary contraction of the urinary bladder, and the contractility of the detrusor muscle during micturition.
The experiment was performed using 9 to 13-weeks old female SD rats in groups of 3-5. After a median incision was made in the abdominal region under urethane anesthesia, a polyethylene indwelling cannula was inserted into the urinary bladder dome through the apex of the urinary bladder and fixed. The other end of the cannula was connected to a T-tube for infusion of saline via one branch and changes in intravesical pressure were recorded via the other branch. When warmed saline was continuously infused into the urinary bladder at a constant rate, the urinary bladder was distended and, when the pressure reached a threshold, the urinary bladder underwent rapid contractions and at the same time a micturition was induced. This procedure was repeated until the volume of saline from the start of infusion to the threshold intravesical pressure (bladder capacity) became steady giving approximately constant values in at least two consecutive determinations. Then, the test compound was administered into the duodenum. The bladder capacity was measured immediately before administration of the test compound and 0.5, 1, 2, and 3 hours after administration. The maximum increase rate (%) in bladder capacity was calculated by means of the following equation.
Maximum increase rate in bladder capacity=[(A-B)/B]×100
where B represents the bladder capacity value immediately before administration of the test compound and A represents the maximum bladder capacity at 0.5, 1, 2, and 3 hours after administration of the test compound. The data shown are mean values.

`CCCOC(C(=O)OC1CCN(C)CC1)(c1ccccc1)c1ccccc1` [Propiverine, propiverine, reference compound] was tested. Which “Maximum increase rate (%) in bladder capacity” value (“Maximum increase rate (%)” below) (100 mg/kg) did it give?
Its value is 42.0%.

For `Cc1c(-c2ccccc2)[nH]c(N)c1C#N` [R1, 2-Amino-3-cyano-4-methyl-5-phenylpyrrole, reference compound], which “Maximum increase rate (%)” value (3 mg/kg) is on record?
The value was 63.6%.

How did the “Maximum increase rate (%)” value (3 mg/kg) turn out when `Cc1c(-c2ccccc2F)[nH]c(N)c1C#N` [compound 1, 2-Amino-3-cyano-4-methyl-5-(2-fluorophenyl)pyrrole] was run?
Its value is 60.8%.

For `Cc1c(-c2cccnc2)[nH]c(N)c1C#N` [compound 8, 2-Amino-3-cyano-4-methyl-5-(3-pyridyl)pyrrole], which “Maximum increase rate (%)” value (30 mg/kg) is on record?
Its value is 55.4%.

For `N#Cc1cc(-c2ccccc2)[nH]c1N` [compound 15], which “Maximum increase rate (%)” value (10 mg/kg) is on record?
The value was 53.8%.

Which “Maximum increase rate (%)” value (10 mg/kg) does the source give for `N#Cc1cc(-c2ccc(F)cc2)[nH]c1N` [compound 41] here?
Its value is 38.8%.

With `Cc1c(-c2cc(F)ccc2F)[nH]c(N)c1C#N` [compound 63, 2-Amino-3-cyano-4-methyl-5-(2,5-difluorophenyl)pyrrole] as the compound, how does the “Maximum increase rate (%)” value (3 mg/kg) read?
The value was 49.9%.
